These are literature values, as cited in US20090022789A1 (Supernus Pharmaceuticals, Inc., priority 2007, published 2009).

Each structure is given as a SMILES string.

For the data set the following is noted: oral administration, IR form.

As to `Nc1nnc(-c2cccc(Cl)c2Cl)c(N)n1` [lamotrigine, 3,5-diamino-6-(2,3-dichlorophenyl)-as-triazine], the first-pass metabolism entry is “negligible”.
